According to patent US12285432B2, “Treatment of hair loss disorders with deuterated JAK inhibitors” (Sun Pharmaceutical Industries, Inc., priority 2021, dated 2025):
Read-outs that look alike come from different tables or passages of the source.

Tests used:
[1] = cited from earlier work
alopecia areata = test: Human clinical trials of CTP-543 in patients suffering from alopecia areata; type: in vivo
[2] = Drug-drug interaction study of Compound (I) (CTP-543) and itraconazole in healthy volunteers, plasma pharmacokinetics; type: in vivo, human
[3] = 10 mg ruxolitinib with vs without ketoconazole 200 mg twice a day, healthy volunteers
[4] = 12 mg Compound (I) alone (Reference), healthy volunteers, plasma
[5] = 12 mg Compound (I) with vs without itraconazole

AUC(0-Tlast) [2, 4]	AUC(0-∞) [2, 4]	AUC(0-Tlast) ([2]; 12 mg Compound (I) with itraconazole 200 mg (Test), healthy volunteers, plasma)	increase in the AUC as a result of dosing with itraconazole [2, 5]	increase in the Cmax as a result of dosing with itraconazole [2, 5]	half-life ([2]; Compound (I) without itraconazole)	Cmax ([2]; human, plasma, 12 mg)	half-life ([2]; human, plasma, 12 mg, read-out: t1/2 (converted))	half-life ([2]; human, plasma, read-out: half-life (converted))	Structure (SMILES)	half-life ([1]; 10 mg ruxolitinib dosed with ketoconazole)	AUC increase as a result of dosing with ketoconazole [1, 3]	Cmax increase as a result of dosing with ketoconazole [1, 3]	half-life ([1]; 10 mg ruxolitinib without ketoconazole)	hair growth in patients suffering from alopecia areata (alopecia areata)
									N#CC[C@H](C1CCCC1)n1cc(-c2ncnc3[nH]ccc23)cn1.O=P(O)(O)O [ruxolitinib, (R)-3-(4-(7H-pyrrolo[2,3-d]pyrimidin-4-yl)-1H-pyrazol-1-yl)-3-cyclopentylpropanenitrile phosphate]	6.0 h	91%	33%	3.7 h	
1326.80 ng·h/mL	1332.48 ng·h/mL	1679.53 ng·h/mL	~27%	~13%	4.18 h	266 ng/mL	4.13 h	4.62 h	[2H]C1([2H])C([C@@H](CC#N)n2cc(-c3ncnc4[nH]ccc34)cn2)C([2H])([2H])C([2H])([2H])C1([2H])[2H] [Compound (I), (R)-3-(4-(7H-pyrrolo[2,3-d]pyrimidin-4-yl)-1H-pyrazol-1-yl)-3-(cyclopentyl-2,2,3,3,4,4,5,5-d8)propanenitrile]					stimulate hair growth
